These results are taken from patent US6384061B1, “Hydantoin compounds and methods related thereto” (LG Chemical Ltd., priority 2000, dated 2002).

One assay has as its target T1, Ras farnesyl transferase (Homo sapiens, UniProt P49354+P49356).
T1 construct: made in house
As to the kind of experiment: Ras farnesyl transferase inhibiting activity (filter-binding, tritium-farnesylpyrophosphate, Ras-CVLS substrate). The assay is classed as biochemical. The following applies: recombinant Ras farnesyl transferase, 30 minutes at 37° C., read-out: Ftase IC50.

Assay [1] has as its target T2, Geranylgeranyl transferase (Bos taurus, UniProt P29702+Q5EAD5).
T2 construct: Geranylgeranyl transferase was purified from bovine brain; from tissue; host or cells: bovine brain
Nature of the assay: Geranylgeranyl transferase inhibiting activity (geranylgeranyl pyrophosphate, Ras-CVIL substrate). Type of assay: biochemical. Conditions: geranylgeranyl transferase purified from bovine brain, read-out: GGtase IC50. An outline of the steps: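 Bovine-brain-purified enzyme run as in the farnesyl transferase assay, with geranylgeranyl pyrophosphate and Ras-CVIL substrate protein under similar reaction conditions.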

For assay [2], the system named is intracellular Ras farnesyl transferase, Rat2 cell line. Nature of the assay: Intracellular Ras farnesyl transferase inhibiting activity in transformed Rat2 cells (35S-methionine labelling, Y13-259 immunoprecipitation, SDS-PAGE). The following applies: Rattus norvegicus; transformed Rat2 fibroblast cell line; concentration inhibiting 50% of farnesyl binding of Ras protein; read-out: Ftase CIC50. Type of assay: cell-based. A digest of the protocol:
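Rat2 fibroblasts transformed with H-Ras, or with H-Ras carrying the K-Ras polybasic lysine C-terminus, were treated with compound (1% DMSO). After 4 h they were labelled for 20 h with 150 μCi/ml 35S-methionine. Lysates were immunoprecipitated with Y13-259, run on 13.5% SDS-PAGE and autoradiographed; CIC50 is the concentration halving farnesylated versus unfarnesylated Ras band intensity.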

In the case of `CC1(c2cccc3ccccc23)C(=O)N(CCCn2ccnc2)C(=O)N1C(=O)N1CCOCC1` (stereo not drawn) [Compound 65, 3-(3-imidazol-1-yl-propyl)-5methyl-1-(morpholine-4-carbonyl)-5-naphthalen-1-yl-imidazolidin-2,4-dione], the IC50 at Ras farnesyl transferase is 4.5 µM; in assay [1], above 10 µM; in assay [2], below 20 µM.
Turning to `CC1(c2cccc3ccccc23)C(=O)N(CCCn2ccnc2)C(=O)N1C(=O)Nc1cccc(C#N)c1` (stereo not drawn) [Compound 66, 3-(3-imidazol-1-yl-propyl)-5-methyl-5-naphthalen-1-yl-2,4-dioxo-imidazolidin-1-carboxylic acid (3-cyano-phenyl)-amide], the IC50 on Ras farnesyl transferase was 0.2 µM; in assay [1], above 10 µM; in assay [2], below 20 µM.
Turning to `CC1(c2cccc3ccccc23)C(=O)N(CCCn2ccnc2)C(=O)N1CC(=O)NC1(C#N)CCOCC1` (stereo not drawn) [Compound 67, N-(4-cyano-tetrahydropyran-4-yl)-2-[3-(3-imidazol-1yl-propyl)-5-methyl-5-naphthalen-1-yl-2,4-dioxo-imidazolidin-1-yl]-acetamide], the results for the IC50 (on Ras farnesyl transferase; in assay [1]; in assay [2]) were 3.6 µM, above 10 µM and below 20 µM, respectively.
In the case of `CC1(c2cccc3ccccc23)NC(=O)N(CCCc2cncn2Cc2ccc(Br)cc2)C1=O` (stereo not drawn) [Compound 68, 3-{3-[3-(4-bromo-benzyl)-3H-imidazol-4-yl]-propyl}-5-methyl-5-naphthalen-1-yl-imidazolidin-2,4-dione], the IC50 at Ras farnesyl transferase was 5 µM; in assay [1], above 10 µM; in assay [2] it was below 20 µM.
Consider `CN1C(=O)N(CCCc2cncn2Cc2ccc(Br)cc2)C(=O)C1(C)c1cccc2ccccc12` (stereo not drawn) [Compound 69, 3-{3-[3-(4-bromo-benzyl)-3H-imidazol-4-yl]-propyl}-1,5-di-methyl-5-naphthalen-1-yl-imidazolidin-2,4-dione], for which the IC50 on Ras farnesyl transferase is 0.3 µM; in assay [1], above 10 µM; in assay [2], below 20 µM.
As for `CCOC(=O)CN1C(=O)N(CCCc2cncn2Cc2ccc(Br)cc2)C(=O)C1(C)c1cccc2ccccc12` (stereo not drawn) [Compound 70, (3-{3-[3-(4-bromo-benzyl)-3H-imidazol-4-yl]-propyl}-5-methyl-5-naphthalen-1-yl-2,4-dioxo-imidazolidin-1-yl)-acetic acid ethyl ester], the IC50 on Ras farnesyl transferase is 5 µM; in assay [1], above 10 µM; in assay [2], below 20 µM.
With `CC1(c2ccccc2)C(=O)N(CCCn2ccnc2)C(=O)N1Cc1cccc(C#N)c1` (stereo not drawn) [Compound 71, 3-[3-(3-imidazol-1-yl-propyl)-5-methyl-5-phenyl-2,4-dioxo-imidazolidin-1-ylmethyl]-benzonitrile], the IC50 at Ras farnesyl transferase was 7 µM; in assay [1] it was above 10 µM; in assay [2] it was below 20 µM.
As for `N#Cc1ccc(Cn2cncc2CN2C(=O)CN(c3cccc4ccccc34)C2=O)cc1` [Compound 72, 4-[5-(3-naphthaten-1-yl-2,5-dioxo-imidazolidin-1-ylmethyl)-imidazol-1-ylmethyl]-benzonitrile], the IC50 at Ras farnesyl transferase was 0.02 µM; in assay [1], above 10 µM; in assay [2] it was below 20 µM.
Regarding `O=C1CN(c2cccc3ccccc23)C(=O)N1Cc1cncn1Cc1ccc(Cl)cc1` [Compound 73, 3-[3-(4-chloro-benzyl)-3H-imidazol-4-ylmethyl]-1-naphthalen-1-yl-imidazolidin-2,4-dione], the IC50 is 0.8 µM on Ras farnesyl transferase, above 10 µM in assay [1] and below 10 µM in assay [2].
On to `O=C(OCc1ccccc1)N1CCC(Cn2cncc2CN2C(=O)CN(c3cccc4ccccc34)C2=O)CC1` [Compound 74, 4-[5-(3-naphthalen-1-yl-2,5-dioxo-imidazolidin-1-ylmethyl)-imidazol-1-ylmethyl]-piperidine-1-carboxylic acid benzyl ester], for which the IC50 at Ras farnesyl transferase is 4 µM; in assay [1], above 10 µM; in assay [2], below 50 µM.
Regarding `N#Cc1ccc(Cn2cncc2CN2C(=O)CN(Cc3cccc4ccccc34)C2=O)cc1` [Compound 75, 4-[5-(3-naphthalen-1-ylmethyl-2,5-dioxo-imidazolidin-1-ylmethyl)-imidazol-1-ylmethyl]-benzonitrile], the IC50 on Ras farnesyl transferase is 0.03 µM; in assay [1], above 10 µM; in assay [2], above 50 µM.
`O=C(OCc1ccccc1)N1CCC(Cn2cncc2CN2C(=O)CN(Cc3cccc4ccccc34)C2=O)CC1` [Compound 76, 4-[5-(3-naphthalen-1-ylmethyl-2,5-dioxo-imidazolidin-1-ylmethyl)-imidazol-1-ylmethyl]-piperidine-1-carboxylic acid benzyl ester]: the figures for the IC50 (on Ras farnesyl transferase; in assay [1]; in assay [2]) were 5 µM, above 10 µM and above 50 µM, respectively.
Regarding `CCOC(=O)CC1C(=O)N(Cc2cncn2Cc2ccc(C#N)cc2)C(=O)N1Cc1cccc2ccccc12` (stereo not drawn) [Compound 77, {1-[3-(4-cyano-benzyl)-3H-imidazol-4-ylmethyl]-3-naphthalen-1-ylmethyl-2,5-dioxo-imidazolidin-4-yl}-acetic acid ethyl ester], the values for the IC50 (on Ras farnesyl transferase; in assay [1]; in assay [2]) were 0.05 µM, above 10 µM and below 10 µM, respectively.
Consider `N#Cc1ccc(Cn2cncc2CN2C(=O)C(CC(=O)O)N(Cc3cccc4ccccc34)C2=O)cc1` (stereo not drawn) [Compound 78, {1-[3-(4-cyano-benzyl)-3H-imidazol-4-ylmethyl]-3-naphthalen-1-ylmethyl-2,5-dioxo-imidazolidin-4-yl}-acetic acid], for which the IC50 at Ras farnesyl transferase was 0.1 µM; in assay [1], above 10 µM; in assay [2], below 20 µM.
In the same order, the values of `COC(=O)C[C@H]1C(=O)N(Cc2cncn2Cc2ccc(C#N)cc2)C(=O)N1Cc1cccc2ccccc12` [Compound 79, {1-[3-(4-cyano-benzyl)-3H-imidazol-4-ylmethyl]-3-naphthalen-1-ylmethyl-2,5-dioxo-imidazolidin-(4S)-yl}-acetic acid methyl ester] are 0.04 µM, above 10 µM and below 10 µM.
Take `N#Cc1ccc(Cn2cncc2CN2C(=O)C(CC(=O)N3CCOCC3)N(Cc3cccc4ccccc34)C2=O)cc1` (stereo not drawn) [Compound 80, 4-{5-[4-(2-morpholin-4-yl-2-oxo-ethyl)-3-naphthalen-1-ylmethyl-2,5dioxo-imidazolidin-1-ylmethyl]-imidazol-1-ylmethyl}-benzonitrile]: the figures for the IC50 (on Ras farnesyl transferase; in assay [1]; in assay [2]) were 0.09 µM, above 10 µM and below 10 µM, respectively.
As for `N#Cc1ccc(Cn2cncc2CN2C(=O)[C@H](CC(=O)N3CCOCC3)N(Cc3cccc4ccccc34)C2=O)cc1` [Compound 81, 4-{(5S)-[4-(2-morpholin-4-yl-2-oxo-ethyl)-3-naphthalen-1-ylmethyl-2,5-dioxo-imidazolidin-1-ylmethyl]-imidazol-1-ylmethyl}-benzonitrile], the IC50 on Ras farnesyl transferase is 0.11 µM; in assay [1], above 10 µM; in assay [2], below 20 µM.
In the same order, the values of `CN(C)CCNC(=O)CC1C(=O)N(Cc2cncn2Cc2ccc(C#N)cc2)C(=O)N1Cc1cccc2ccccc12` (stereo not drawn) [Compound 82, 2-{1-[3-(4-cyano-benzyl)-3H-imidazol-4-ylmethyl]-3-naphthalen-1-ylmethyl-2,5-dioxo-imidazolidin-4-yl}-N-(2-(N,N-dimethylamino)-ethyl)-acetamide] are 0.15 µM, above 10 µM and below 20 µM.
`COCCN(C)C(=O)CC1C(=O)N(Cc2cncn2Cc2ccc(Br)cc2)C(=O)N1Cc1cccc2ccccc12` (stereo not drawn) [Compound 83, 2-{1-[3-(4-bromo-benzyl)-3H-imidazol-4-ylmethyl]-3-naphthalen-1-ylmethyl-2,5dioxo-imidazolidin-4-yl}-N-(2-methoxy-ethyl)-N-methyl-acetamide]: the IC50 is 1.5 µM on Ras farnesyl transferase, above 10 µM in assay [1] and above 50 µM in assay [2].
With `CN1CCN(C(=O)C[C@H]2C(=O)N(Cc3cncn3Cc3ccc(C#N)cc3)C(=O)N2Cc2cccc3ccccc23)CC1` [Compound 84, 4-((5S)-{4-[2-(4-methyl-piperazin-1-yl)-2-oxo-ethyl]-3-naphthalen-1-ylmethyl-2,5-dioxo-imidazolidin-1-ylmethyl}-imidazol-1-ylmethyl)-benzonitrile], the IC50 was 0.12 µM at Ras farnesyl transferase, above 10 µM in assay [1] and below 20 µM in assay [2].
In the same order, the values of `COC(=O)[C@H](CCSC)NC(=O)CC1C(=O)N(Cc2cncn2Cc2ccc(C#N)cc2)C(=O)N1Cc1cccc2ccccc12` (stereo partly drawn) [Compound 85, (2S)-(2-{1-[3-(4-cyano-benzyl)-3H-imidazol-4-ylmethyl]-3-naphthalen-1-ylmethyl-2,5-dioxo-imidazolidin-4-yl}-acetamino)-4-methylsulfanyl-butyric acid methyl ester] are 0.2 µM, above 10 µM and below 50 µM.
Turning to `CSCC[C@H](NC(=O)CC1C(=O)N(Cc2cncn2Cc2ccc(C#N)cc2)C(=O)N1Cc1cccc2ccccc12)C(=O)O` (stereo partly drawn) [Compound 86, (2S)-(2-{1-[3-(4-cyano-benzyl)-3H-imidazol-ylmethyl]-3-naphthalen-1-ylmethyl-2,5-dioxo-imidazolidin-4-yl}-acetamino)4-methylsulfanyl-butyric acid], the IC50 is 0.05 µM at Ras farnesyl transferase, above 10 µM in assay [1] and below 10 µM in assay [2].
Consider `O=C1CN(c2cccc3ccccc23)C(=O)N1CCCn1ccnc1` [Compound 87, 3-(3-imidazol-1-yl-propyl)-1-naphthalen-1-yl-imidazolidin-2,4-dione], for which the IC50 at Ras farnesyl transferase is 5 µM; in assay [1], above 10 µM; in assay [2], above 50 µM.
